Source: US10392630B2, “Plants having increased tolerance to herbicides” (BASF AGRO B.V., priority 2013, dated 2019)
Changes are numbered by the printed parent chain.

Columns and labels:
Assay in all cases: biochemical
[1] = molecular target: T1, Amaranthus mutant PPO (AMARE) (Amaranthus tuberculatus, UniProt Q0NZW9, F420M/R128I)
T1 sequence (Q0NZW9 1-534 R128I/F420M): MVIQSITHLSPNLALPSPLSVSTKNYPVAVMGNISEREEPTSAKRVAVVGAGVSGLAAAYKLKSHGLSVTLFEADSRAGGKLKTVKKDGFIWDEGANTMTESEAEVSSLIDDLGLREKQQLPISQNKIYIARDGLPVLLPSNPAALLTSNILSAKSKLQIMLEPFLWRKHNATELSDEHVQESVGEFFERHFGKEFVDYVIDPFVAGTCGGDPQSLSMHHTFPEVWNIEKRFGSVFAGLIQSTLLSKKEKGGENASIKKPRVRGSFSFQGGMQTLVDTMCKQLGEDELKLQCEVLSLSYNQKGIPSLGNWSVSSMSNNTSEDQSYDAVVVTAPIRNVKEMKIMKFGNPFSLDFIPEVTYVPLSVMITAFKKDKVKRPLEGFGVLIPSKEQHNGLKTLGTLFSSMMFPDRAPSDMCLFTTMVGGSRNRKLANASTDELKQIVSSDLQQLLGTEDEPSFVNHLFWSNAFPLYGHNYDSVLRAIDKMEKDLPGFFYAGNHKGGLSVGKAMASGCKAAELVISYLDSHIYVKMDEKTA

[2] = molecular target: T2, Amaranthus mutant PPO (AMARE) (Amaranthus tuberculatus, UniProt Q0NZW9, F420L/R128L)
T2 sequence (Q0NZW9 1-534 R128L/F420L): T1 sequence (Q0NZW9 1-534 R128I/F420M) with I128L, M420L

[3] = molecular target: T3, Amaranthus mutant PPO (AMARE) (Amaranthus tuberculatus, UniProt Q0NZW9, F420V)
T3 sequence (Q0NZW9 1-534 F420V): T1 sequence (Q0NZW9 1-534 R128I/F420M) with I128R, M420V

[4] = molecular target: T4, Amaranthus mutant PPO (AMARE) (Amaranthus tuberculatus, UniProt Q0NZW9, F420I/R128L)
T4 sequence (Q0NZW9 1-534 R128L/F420I): T1 sequence (Q0NZW9 1-534 R128I/F420M) with I128L, M420I

[5] = molecular target: T5, Amaranthus mutant PPO (AMARE) (Amaranthus tuberculatus, UniProt Q0NZW9, F420V/R128A)
T5 sequence (Q0NZW9 1-534 R128A/F420V): T1 sequence (Q0NZW9 1-534 R128I/F420M) with I128A, M420V

SMILES: C#CCN1C(=O)C(F)(F)Oc2cc(F)c(-n3c(=O)n(C)c(=S)n(C)c3=O)cc21 [BAS 850H]
- IC50 [1]: 0.246 µM
- IC50 [2]: 1.71 µM
- IC50 [3]: 0.00161 µM
- IC50 [4]: 1.23 µM
- IC50 [5]: 0.025 µM

SMILES: CC(C)N(C)S(=O)(=O)NC(=O)c1cc(-n2c(=O)cc(C(F)(F)F)n(C)c2=O)c(F)cc1Cl [saflufenacil]
- IC50 [1]: > 10 µM
- IC50 [2]: > 10 µM
- IC50 [3]: 1.59 µM
- IC50 [4]: > 10 µM
- IC50 [5]: > 10 µM
